Data published in publication PMC6630832, “3-Vinylazetidin-2-Ones: Synthesis, Antiproliferative and Tubulin Destabilizing Activity in MCF-7 and MDA-MB-231 Breast Cancer Cells” (Pharmaceuticals, 2019).

How the values were obtained:
[1] = tested on: human MCF-7 breast cancer cells; experiment: Cell viability (Alamar Blue) antiproliferative assay in MCF-7 cells; assay type: cell-based; settings: Homo sapiens, MCF7, 72 h, human MCF-7 breast cancer cells; 72 h; mean ± SEM; read-out: Antiproliferative Activity IC50
Description: (§1) The human breast carcinoma cell line MCF-7, was purchased from the European Collection of Animal Cell Cultures (ECACC) and was cultured in Eagle’s minimum essential medium with 10% fetal bovine serum, 2 mM L-glutamine and 100 μg/mL penicillin/streptomycin. The medium was supplemented with 1% non-essential amino acids. The human breast carcinoma cell line MDA-MB-231 was purchased from the European Collection of Animal Cell Cultures (ECACC). MDA-MB-231 cells were maintained in Dulbecco’s modified Eagle’s medium (DMEM) supplemeted with 10% (v/v) fetal bovine serum, 2 mM L-glutamine and 100 μg/mL penicillin/streptomycin (complete medium). All media contained 100 U/mL penicillin and 100 μg/mL streptomycin. Triple negative breast cancer Hs578T cells and its invasive variant Hs578Ts(i)8 were obtained as a kind gift from Dr. Susan McDonnell, School of Chemical and Bioprocess Engineering, University College Dublin and were cultured in Dulbecco’s Modified Eagle’s Media (DMEM) with GlutaMAX^TM-I, with the same supplement as for MDA-MB-231 cells in the absence of non-essential amino acids. HEK-293T normal epithelial embryonic kidney cells were cultured in Dulbecco’s Modified Eagle’s Medium (DMEM) with GlutaMAX^TM-I in the absence of non-essential amino acids. K562 and HL-60 cells were originally obtained from the European Collection of Cell Cultures (Salisbury, UK).The K562 cells were derived from a patient in the blast crisis stage of CML HL-60 cells were derive from a patient with acute myeloid leukaemia. Cells were cultured in RPMI-1640 Glutamax medium supplemented with 10% FCS media, and 100 μg/mL penicillin/streptomycin. Cells were maintained at 37 °C in 5% CO2 in a humidified incubator. All cells were sub-cultured three times/week (adherent cells by trypsinisation).
(§2) Cells were seeded at a density of 5 × 10^3 cells/well (MCF-7), in triplicate in 96-well plates. After 24 h, cells were then treated with either medium alone, vehicle [1% ethanol (v/v)] or with serial dilutions of CA-4 or β-lactam analogue. Cell viability for MCF-7 and MDA-MB-231 was analysed using the Alamar Blue assay (Invitrogen Corp, Thermo Fisher Scientific, 168 Third Avenue, Waltham, MA, USA) according to the manufacturer’s instructions. After 72 h, Alamar Blue [10% (v/v)] was added to each well and plates were incubated for 3–5 h at 37 °C in the dark. Fluorescence was read using a 96-well fluorimeter with excitation at 530 nm and emission at 590 nm. Results were expressed as percentage viability relative to vehicle control (100%). Dose response curves were plotted and IC50 values (concentration of drug resulting in 50% reduction in cell survival) were obtained using the commercial software package Prism (GraphPad Software, Inc., 2365 Northside, Suite 560, San Diego, CA, USA). Experiments were performed in triplicate on at least three separate occasions.

MCF-7 cells = experiment: Lactate dehydrogenase (LDH) assay for cytotoxicity; assay type: cell-based; settings: Homo sapiens, MCF7, 72 h, read-out: cell death (LDH assay)
Description: Cytotoxicity was determined using the CytoTox 96 non-radioactive cytotoxicity assay (Promega Corporation; 2800 Woods Hollow Road, Madison, WI, USA) following the manufacturer’s protocol. Briefly, MCF-7 cells were seeded in 96-well plates, incubated for 24 hr and then treated with test compounds (7d, 7h, 7i, 7q, 7r, 7u, 7t, 10d, 10f, 12) as described in the cell viability assay above. After 72 h, 20 μL of ‘lysis solution (10X)’ was added to control wells and the plate was incubated for a further 1 hr to ensure 100% death. 50 μL of supernatant was carefully removed from each well and transferred to a new 96-well plate. 50 μL of reconstituted ‘substrate mix’ was added and the plate was placed in the dark at room temperature for 30 min. After this period, 50 μL of ‘stop solution’ was added to each well and the absorbance was read at a wavelength of 490 nm using a Dynatech MR5000 plate reader. The percentage cell death at 10 μM was calculated.

[2] = tested on: human MDA-MB-231 breast cancer cells; experiment: Cell viability (Alamar Blue) antiproliferative assay in MDA-MB-231 cells; assay type: cell-based; settings: mean ± SEM
Description: as §1, §2

purified bovine tubulin = target: T1, purified bovine tubulin (Bos taurus, UniProt P81947+Q6B856); experiment: Tubulin polymerization assay; assay type: biochemical; settings: 10 μM; for vmax of tubulin polymerization: absorbance at 340 nm, 37 °C
T1 construct: Purified (>99%) bovine brain tubulin (3 mg/mL); purchased Cytoskeleton Inc. BK006; host or cells: bovine brain (tissue-purified)
Description: The assembly of purified bovine tubulin was monitored using a kit, BK006, purchased from Cytoskeleton Inc., 1830 S Acoma St, Denver, CO, 80223, USA.. The assay was carried out in accordance with the manufacturer’s instructions in the tubulin polymerisation assay kit manual using the standard assay conditions. The values reported represent the average values from two independent assays. Purified (>99%) bovine brain tubulin (3 mg/mL) in a buffer consisting of 80 mM PIPES (pH 6.9), 0.5 mM EGTA, 2 mM MgCl2, 1 mM GTP and 10% glycerol was incubated at 37 °C in the presence of either vehicle (2% (v/v) ddH2O) or compounds 7h, 7i, 7s, 7t (initially 10 µM in EtOH); CA-4 and Paclitaxel were used as controls. Light is scattered proportionally to the concentration of polymerised microtubules in the assay. Therefore, tubulin assembly was monitored turbidimetrically at 340 nm at 37 °C in a Spectramax 340 PC spectrophotometer (Molecular Devices, 3860 N 1st St, San Jose, CA, USA). The absorbance was measured at 30 s intervals for 60 min.

[3] = tested on: microtubule network of MCF-7 cells; experiment: Immunofluorescence microscopy; assay type: cell-based, human; settings: 1 μM, 16 h
Description: Confocal microscopy was used to study the effects of drug treatment on MCF-7 cytoskeleton. For immunofluorescence, MCF-7 cells were seeded at 1 × 10^5 cells/mL on eight chamber glass slides (BD Biosciences, 2350 Qume Dr, San Jose, CA, USA). Cells were either untreated or treated with vehicle [1% ethanol (v/v)], paclitaxel (1 μM), combretastatin A-4 (100 nM) or compound 7s (100 nM) for 16 h. Following treatment cells were gently washed in PBS, fixed for 20 min with 4% paraformaldehyde in PBS and permeabilised in 0.5% Triton X-100. Following washes in PBS containing 0.1% Tween (PBST), cells were blocked in 5% bovine serum albumin diluted in PBST. Cells were then incubated with mouse monoclonal anti-α-tubulin−FITC antibody (clone DM1A) (Sigma-Aldrich, 2033 Westport Center Dr, St. Louis, MO, USA) (1:100) for 2 h at room temperature. Following washes in PBST, cells were incubated with Alexa Fluor 488 dye (1:450) for 1 h at room temperature. Following washes in PBST, the cells were mounted in Ultra Cruz Mounting Media (Santa Cruz Biotechnology Inc., 10410 Finnell Street, Dallas, TX, USA) containing 4,6-diamino-2-phenolindol dihydrochloride (DAPI). Images were captured by Leica SP8 confocal microscopy with Leica application suite X software (Leica Microsystems CMS GmbH Am Friedensplatz 3 D-68165 Mannheim, Germany). All images in each experiment were collected on the same day using identical parameters. Experiments were performed on three independent occasions.

T1 sequence (Q6B856 whole entry): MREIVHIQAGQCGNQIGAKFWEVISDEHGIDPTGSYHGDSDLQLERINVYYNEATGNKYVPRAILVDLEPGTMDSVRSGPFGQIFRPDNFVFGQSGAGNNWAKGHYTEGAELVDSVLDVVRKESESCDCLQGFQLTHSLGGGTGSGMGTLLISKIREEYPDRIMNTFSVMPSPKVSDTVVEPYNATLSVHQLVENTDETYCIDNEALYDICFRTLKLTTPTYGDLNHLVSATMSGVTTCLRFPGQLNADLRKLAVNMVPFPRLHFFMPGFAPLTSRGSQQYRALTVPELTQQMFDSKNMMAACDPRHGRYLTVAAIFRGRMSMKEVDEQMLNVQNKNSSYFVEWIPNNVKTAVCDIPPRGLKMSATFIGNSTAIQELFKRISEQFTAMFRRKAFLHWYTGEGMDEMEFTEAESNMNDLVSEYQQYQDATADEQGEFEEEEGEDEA
T1 sequence (P81947 whole entry): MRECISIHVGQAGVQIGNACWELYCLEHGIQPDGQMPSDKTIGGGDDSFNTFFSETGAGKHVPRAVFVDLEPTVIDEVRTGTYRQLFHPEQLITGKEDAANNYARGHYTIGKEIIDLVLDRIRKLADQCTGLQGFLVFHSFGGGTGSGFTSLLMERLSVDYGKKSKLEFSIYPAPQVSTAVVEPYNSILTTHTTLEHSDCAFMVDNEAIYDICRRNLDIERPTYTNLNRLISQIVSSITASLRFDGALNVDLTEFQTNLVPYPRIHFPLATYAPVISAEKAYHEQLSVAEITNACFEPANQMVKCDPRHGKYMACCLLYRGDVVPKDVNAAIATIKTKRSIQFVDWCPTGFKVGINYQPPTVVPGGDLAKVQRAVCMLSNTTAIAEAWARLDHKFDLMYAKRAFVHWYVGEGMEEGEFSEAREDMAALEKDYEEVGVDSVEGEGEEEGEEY

| Compound | IC50 [1] | cytotoxicity at 10 µM (MCF-7 cells) | IC50 [2] | vmax of tubulin polymerization (purified bovine tubulin) | fold reduction in vmax of tubulin polymerization (purified bovine tubulin; with reference to ethanol control) | effect on microtubule network [3] |
| --- | --- | --- | --- | --- | --- | --- |
| C=CC1C(=O)N(c2cc(OC)c(OC)c(OC)c2)C1c1ccc(OCC)cc1 (stereo not shown) [Compound 7i, 4-(4-Ethoxyphenyl)-1-(3,4,5-trimethoxyphenyl)-3-vinylazetidin-2-one] | 37 ± 3.3 nM | 8.5% | 61 ± 7 nM | 3.84 mOD/min | 2.19 fold |  |
| CC(=O)O[C@H]1C(=O)[C@@]2(C)[C@H]([C@H](OC(=O)c3ccccc3)[C@]3(O)C[C@H](OC(=O)[C@H](O)[C@@H](NC(=O)c4ccccc4)c4ccccc4)C(C)=C1C3(C)C)[C@]1(OC(C)=O)CO[C@@H]1C[C@@H]2O [paclitaxel, reference compound] |  |  |  | 89.4 mOD/min |  | Formation of microtubule bundles and pseudo asters |
